Laboratory results from ChEMBL document CHEMBL4834491, “Novel Compounds for Treating Malaria” (ACS Med Chem Lett, 2021).

Tested on: Plasmodium falciparum
Test: Antimalarial activity against Plasmodium falciparum assessed as reduction in parasite growth after 72 hrs by LDH assay
Assay type: functional, organism-based

`CC[C@]1(C)CC(=O)N([C@H](c2cncc(F)c2)[C@@H]2C[C@H]2C(=O)N[C@H]2CC(C)(C)Oc3ccc(F)cc32)C(=N)N1` was tested, and the EC50 was 0.3 nM.
In the case of `CCC1(CC)CC(=O)N([C@H](CCCC(C)OC)[C@@H]2C[C@H]2C(=O)N[C@H]2CC(C)(C)Oc3ccccc32)C(=N)N1` (stereo partly specified), the EC50 is reported as 0.7 nM.
Compound `CC1(C)CC(=O)N([C@H](c2cncc(Cl)c2)[C@@H]2C[C@H]2C(=O)N[C@H]2C[C@H](C(F)(F)F)Oc3ccccc32)C(=N)N1` has an EC50 of 0.5 nM.
Work on `CC[C@@]1(C)CC(=O)N([C@H](c2cncc(F)c2)[C@@H]2C[C@H]2C(=O)N[C@H]2CC(C)(C)Oc3ccccc32)C(=N)N1` yielded an EC50 of 0.6 nM.
Compound `CCC1(CC)CC(=O)N([C@H](c2cccnc2)[C@@H]2C(C)[C@H]2C(=O)N[C@H]2CC(C)(C)Oc3ccccc32)C(=N)N1` (stereo partly specified) has an EC50 of 0.7 nM.
With `CC[C@]1(C)CC(=O)N([C@H](c2cncc(F)c2)[C@@H]2C[C@H]2C(=O)N[C@H]2C[C@H](C(F)(F)F)Oc3ccccc32)C(=N)N1` the EC50 was 0.3 nM.
